Like-named read-outs stand apart in the source and are kept apart here.
Legend:
Format in all cases: biochemical
KLKB1 [1] = biological target: T1, KLKB1 (Homo sapiens (Human), UniProt P03952); assay: Inhibition of human KLKB1 in dextran sulfate activated human PPP
Experimental: Evaluation of the Inhibition of Human KLKB1 in Dextran Sulfate Activated Human PPP
Platelet poor plasma (PPP) obtained from human wholeblood, anticoagulated with EDTA, was activated with 12.5 μg/mL dextransulfate for 7 min on ice. The activated PPP was incubated with various concentrations of the test compound in assay buffer. Afterwards the mixture was incubated at 24° C. with 0.25 mM fluorogenic substrate H-Pro-Phe-Arg-AMC (11295 from Bachem) and measurements were performed in a kinetic interval every 2nd minute for 16 min using a Spectramax M5 (Molecular Devices) with the following settings of the wavelength excitation of 350 nm and wavelength emission of 450 nm.
(§1) The number of the compound corresponds to the number of the Example in the experimental section.

KLKB1 [2] = biological target: T1, KLKB1; assay: Inhibition of KLKB1 using an endpoint assay (fluorogenic substrate H-Pro-Phe-Arg-AMC)
Experimental: (§2) The ability of compounds of formula (I) to inhibit plasma kallikrein (KLKB1), Factor XIIa (FXIIa), Factor XIa (FXIa), Factor Xa (FXa), Factor IIa (alpha-thrombin; FIIa), plasmin, trypsin, tissue kallikrein 1 (KLK1), Factor Vila (FVIIa), or FVIIa complexed with Tissue Factor, phospholipids and CaCl2 (FVIIa/TF/PL/CaCl2) was determined using the following biochemical assays in assay buffer (100 mM Tris, 150 mM NaCL, adjusted to a pH of 7.8 with HCl, and containing 0.1% (w/v) BSA and 0.05% (v/v) Tween20) in the presence of 1% (v/v) DMSO:
Evaluation of the Inhibition of KLKB1 Using an Endpoint Assay
Human KLKB1 (0.01 U/mL; Enzyme Research Laboratories) or rat KLKB1 (0.625 nM; produced in-house) was incubated for 1 h at room temperature with 0.10 μM fluorogenic substrate H-Pro-Phe-Arg-AMC (11295 from Bachem) and various concentrations of the test compound in assay buffer. Subsequently, PPACK 11 (Calbiochem) was added as a stop solution to achieve a final concentration of 1 μM and fluorescence was measured using an Envision Reader (PerkinElmer) with the wavelength excitation setting of 355 nm and the wavelength emission setting of 460 nm.
as §1

KLKB1 [3] = biological target: T1, KLKB1; assay: Inhibition of KLKB1 in kaolin activated human PPP
Experimental: Evaluation of the Inhibition of KLKB1 in Kaolin Activated Human PPP
Platelet poor plasma (PPP) obtained from human wholeblood, anticoagulated with Na-Citrat, was incubated with various concentrations of the test compound together with either 25, 75, 250, or 750 μg/mL kaolin in assay buffer for 20 min at 37° C. such that for each kaolin dose used a concentration response was obtained for the test compound.
as §1

KLKB1 [4] = biological target: T1, KLKB1; assay: Inhibition of KLKB1 (Ki), kinetic assay; settings: 24° C., 0.25 mM H-Pro-Phe-Arg-AMC; IC50 corrected for KM of substrate
Experimental: as §2
Evaluation of the Inhibition of KLKB1 (Ki)
Measurements were performed in a kinetic interval every 2nd minute for 16 min using a Spectramax M5 (Molecular Devices) with the following settings of the wavelength excitation of 350 nm and wavelength emission of 450 nm.
as §1
Calculation of pIC50 and Pki Values
The pIC50 values were then fitted using a four-parametric fitting procedure using GraphPad Prism (version 6; GraphPad Software, Inc.).
Where the IC50 is in molar and the KM value in mM.

[5] = human platelet poor plasma (EDTA) activated with 12.5 μg/mL dextransulfate, 24° C., read-out: IC50
[6] = endpoint assay, 1 h at room temperature, 0.10 μM H-Pro-Phe-Arg-AMC, read-out: IC50
[7] = human platelet poor plasma (Na-Citrat), 25, 75, 250 or 750 μg/mL kaolin, global fit, read-out: IC50

T1 sequence (P03952 391-638 limits assumed): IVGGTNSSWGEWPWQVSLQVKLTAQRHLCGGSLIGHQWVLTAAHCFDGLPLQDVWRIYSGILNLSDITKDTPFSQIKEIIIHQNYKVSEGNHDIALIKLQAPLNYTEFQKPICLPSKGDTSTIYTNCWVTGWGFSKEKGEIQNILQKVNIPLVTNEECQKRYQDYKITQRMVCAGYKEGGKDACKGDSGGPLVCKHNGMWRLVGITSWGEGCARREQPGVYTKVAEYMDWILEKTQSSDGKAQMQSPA
T1 sequence (P03952 20-390 partner limits assumed): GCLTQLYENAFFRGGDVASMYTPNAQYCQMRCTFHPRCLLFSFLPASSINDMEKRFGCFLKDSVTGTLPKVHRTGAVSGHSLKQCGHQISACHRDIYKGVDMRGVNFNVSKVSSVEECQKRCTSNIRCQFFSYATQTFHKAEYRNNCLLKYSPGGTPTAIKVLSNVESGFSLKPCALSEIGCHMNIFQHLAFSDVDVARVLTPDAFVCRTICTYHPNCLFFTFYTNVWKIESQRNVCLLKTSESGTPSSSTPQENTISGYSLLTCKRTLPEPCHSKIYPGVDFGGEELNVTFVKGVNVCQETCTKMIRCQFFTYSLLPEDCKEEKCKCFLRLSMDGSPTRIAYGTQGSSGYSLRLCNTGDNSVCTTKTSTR

Structure (SMILES) | IC50 (KLKB1 [1]) | IC50 (KLKB1 [2]) | IC50 (KLKB1 [3]) | IC90 (KLKB1 [3]) | Ki (KLKB1 [4]) | IC50 (KLKB1 [1]; [5]) | IC50 (KLKB1 [2]; [6]) | IC50 (KLKB1 [3]; [7]) | IC90 (KLKB1 [3]; human platelet poor plasma (Na-Citrat), 25, 75, 250 or 750 μg/mL kaolin, global fit, read-out: IC90)
Cc1nc(N2CC3CC3C2)ccc1Cn1cc(C(=O)N[C@@H]2CCc3c2ccnc3N)cn1 (stereo partly drawn) [Example 1, N-[(5R)-1-Amino-5H,6H,7H-cyclopenta[c]pyridin-5-yl]-1-[(6-{3-azabicyclo[3.1.0]hexan-3-yl}-2-methylpyridin-3-yl)methyl]-1H-pyrazole-4-carboxamide] | 54.1 nM | 0.5 nM | 19 nM | 199 nM | 0.3 nM | – | – | – | –
Cc1nc(N2CC3CC3C2)ncc1Cn1cc(C(=O)N[C@@H]2CCc3c2ccnc3N)cn1 (stereo partly drawn) [Example 11] | – | – | – | – | 1.5 nM | 50.3 nM | 1.7 nM | 23.9 nM | 232 nM
Cc1nc(N2CC3C(C2)C3(F)F)ccc1Cn1cc(C(=O)N[C@@H]2CCc3c2ccnc3N)cn1 (stereo partly drawn) [Example 9, N-[(5R)-1-Amino-5H,6H,7H-cyclopenta[c]pyridin-5-yl]-1-[(6-{6,6-difluoro-3-azabicyclo[3.1.0]hexan-3-yl}-2-methylpyridin-3-yl)methyl]-1H-pyrazole-4-carboxamide] | – | – | – | 89.5 nM | 0.4 nM | 18.1 nM | 0.6 nM | 14 nM | –
